Measured values reported in patent US9655899B2, “Compositions and methods for treating cancer” (Merck Sharp & Dohme Corp., priority 2012, dated 2017).
Read-outs that look alike come from different tables or passages of the source.

Key:
NCI-H460 [1] = experiment: PKMYT1 siRNA knockdown proliferation assay (ViaLight, 72 hours); assay type: cell-based, human; conditions: for dose response curves in control (CT) versus PKMYT1 siRNA transfected cells / EC50: 72 hours; for EC50: Homo sapiens, NCI-H460, 72 h, n=3, read-out: anti-proliferative EC50
Method: (§1) For the knockdown studies, NCI-H460 and KNS62, two non-small cell lung cancer cell lines, American Type Culture Collection, Manassas, Va., were transfected with siRNA pools (SMARTpool, Dharmacon, Thermo Fisher Scientific, Waltham, Mass.) with either non-targeting control or PKMYT1 sequences. […] To approximate cell content, ViaLight (Lonza, Basel, Switzerland) was used according to manufacturer's protocol. Samples were run in triplicate and growth was calculated by determining the percentage of the control raw value for each treatment.

KNS62 [2] = experiment: as above; assay type: cell-based, human; conditions: for dose response curves in control (CT) versus PKMYT1 siRNA transfected cells / EC50: 72 hours; for EC50: Homo sapiens, KNS-62, 72 h, n=2, read-out: anti-proliferative EC50
Method: as §1

522 cancer cell lines = experiment: Cellular proliferation assay screen (CellTiter-Glo, 96 hours); assay type: cell-based, human; conditions: for EC50: Homo sapiens, 96 h
Method: (§2) All cancer cell lines were grown in medium recommended by the cell line vendor (ATCC). Tissue culture media, serum, and supplements were purchased from Sigma-Aldrich® (St. Louis, Mo.). For the proliferation assay screen (FIG. 1), cells were plated in 384-well tissue culture plates and grown under compound or vehicle treatment. After 96 hours, CellTiter-Glo (Promega, Madison, Wis.) was used according to the manufacturer's protocol to approximate cell content. Samples were run in triplicate and growth was calculated as the CellTiter-Glo raw value of treated samples relative to vehicle-treated control wells.

ES-2 cells [3] = experiment: Flow cytometry for γH2AX in serum-starved cells with or without FBS; assay type: cell-based, human; conditions: 500 nM; 24 hours; 20% FBS
Method: (§3) To detect DNA double strand breaks, cells were stained with a FITC-conjugated anti-γH2AX (S139) antibody (kit 17-344, Millipore, Billerica, Mass.) after having been fixed overnight in ice-cold 70% ethanol Propidium iodide (PI)/RNase solution (BD Biosciences, Franklin Lakes, N.J.) was used to detect total DNA content. For studies interrogating premature mitosis, an anti-pHH3-Alexa 647 antibody (BD Biosciences 558217) was added. For synchronization studies, cells were incubated in serum-free medium for 36 hours, followed by replenishment with 20% FBS. One hour prior to each harvest, cells were pulsed with 10 μM bromodeoxyuridine (BrdU). Cells were fixed and stained for BrdU and DNA content with an anti-BrdU FITC-conjugated antibody and 7-aminoactinomycin-D (7-AAD) dye, respectively, according to the instructions in the BD Pharmingen™ FITC BrdU Flow Kit (BD Biosciences, Franklin Lakes, N.J.). All cytometry data were collected on the BD LSR II flow cytometer using the BD FACS Diva™ software (BD Biosciences, Franklin Lakes, N.J.), and the results were analyzed in FlowJo version 7.5.

pCDK1^T14 = experiment: Western blot, CDK1 T14 phosphorylation; assay type: cell-based, human; conditions: six cell lines, possible exception of A427; 2 hours
Source text: (§4) Cells were lysed in mammalian protein extraction reagent (MPER, Thermo Fisher 78505, Waltham, Mass.) and then subjected to SDS-PAGE and transferred onto nitrocellulose or PVDF membranes. Antibodies used for Western blotting are from the following sources: total CDK1, pCDK1^Y15, pCDK1^T14, pCHK1^S345, pStathmin^S38, pLaminA/C^S22, pCDK substrate motif, γH2AX, Cyclin A, and total PKMYT1 from Cell Signaling Technologies (Beverly, Mass.); actin-HRP from Santa Cruz Biotechnology (Santa Cruz, Calif.); secondary HRP-conjugated anti-mouse and rabbit antibodies from GE Healthcare (Waukesha, Wis.). Blots were exposed with SuperSignal West Femto chemiluminescent substrate (Thermo Fisher Pierce, Waltham, Mass.).

A2058 cells [4] = experiment: Flow cytometry for γH2AX at EC90; assay type: cell-based, human; conditions: EC90 concentration; 24 hours
Method: (§5) To detect DNA double strand breaks, cells were stained with a FITC-conjugated anti-γH2AX (S139) antibody (kit 17-344, Millipore, Billerica, Mass.) after having been fixed overnight in ice-cold 70% ethanol Propidium iodide (PI)/RNase solution (BD Biosciences, Franklin Lakes, N.J.) was used to detect total DNA content. For studies interrogating premature mitosis, an anti-pHH3-Alexa 647 antibody (BD Biosciences 558217) was added.

LoVo cells [5] = experiment: Flow cytometry for γH2AX at EC90; assay type: cell-based, human; conditions: EC90 concentration; 24 hours
Method: as §5

HT-29 cells [6] = experiment: Flow cytometry for γH2AX at EC90; assay type: cell-based, human; conditions: EC90 concentration; 24 hours
Method: as §5

pCHK1^S345 = experiment: Western blot, DNA damage response marker; assay type: cell-based, human; conditions: 2 hours
Source text: as §4

A2058 cells [7] = experiment: Flow cytometry for mitotic marker pHH3; assay type: cell-based, human; conditions: EC90 concentration; 24 hours
Method: as §5

LoVo cells [8] = experiment: Flow cytometry for mitotic marker pHH3; assay type: cell-based, human; conditions: EC90 concentration; 24 hours
Method: as §5

HT-29 cells [9] = experiment: Flow cytometry for mitotic marker pHH3; assay type: cell-based, human; conditions: EC90 concentration; 24 hours
Method: as §5

[10] = system: TOV21G ovarian cancer cells; experiment: Flow cytometry for DNA double strand breaks (γH2AX) and BrdU uptake; assay type: cell-based, human; conditions: 150 nM
Method: as §3

[11] = system: neuroblastoma tumor cell lines; experiment: Cellular proliferation assay screen (CellTiter-Glo, 96 hours); assay type: cell-based; conditions: Homo sapiens, n=7
Method: as §2

[12] = system: colorectal cancer cell lines; experiment: as above; assay type: cell-based; conditions: Homo sapiens, n=66
Method: as §2

A431 = experiment: Proliferation assay; assay type: cell-based; conditions: Homo sapiens, A-431
Method: as §2

NCI-H460 [13] = experiment: Proliferation assay; assay type: cell-based; conditions: Homo sapiens
Method: as §2

[14] = system: A427 non-small cell lung cancer cell line; experiment: Proliferation assay; assay type: cell-based; conditions: Homo sapiens, A-427
Method: as §2

KNS62 [15] = experiment: Proliferation assay; assay type: cell-based; conditions: Homo sapiens, KNS-62
Method: as §2

ES-2 = experiment: Proliferation assay; assay type: cell-based; conditions: Homo sapiens
Method: as §2

SK-MES-1 NSCLC model = experiment: In vivo efficacy, xenograft; set-up: species or system mice; conditions: single agent, 60 mg/kg BID
Source text: (§6) CD-1 Nu/Nu female mice aged 5-6 weeks were obtained from Charles River Laboratories (Wilmington, Del.) and housed in Applicants animal care facility at standard laboratory conditions and fed 2018S autoclaveable diet (Harlan Laboratories, Indianapolis, Ind.) and water ad libitum. The protocol was approved by Applicants' in-house animal care and use committee. Mice were inoculated with cells (1:1 Matrigel:PBS) subcutaneously (SC) into the right flank. […] Tumor volume and body weights were recorded bi-weekly.

[16] = system: LoVo colorectal tumor model; experiment: In vivo efficacy, xenograft; set-up: species or system mice; conditions: single agent, 60 mg/kg BID; treatment stopped on day 13
Source text: as §6

NCI-H2122 NSCLC model = experiment: In vivo efficacy, xenograft; set-up: species or system mice; conditions: single agent
Source text: as §6

A427 xenograft = experiment: In vivo efficacy, xenograft; set-up: species or system mice; conditions: 60 mg/kg BID, 28 days
Source text: as §6

[17] = system: A431 epidermoid tumor model; experiment: In vivo efficacy, xenograft; set-up: species or system mice; conditions: single agent
Source text: as §6

ES-2 cells [18] = experiment: Cell synchronization study, S-phase population (BrdU); assay type: cell-based, human
Method: For synchronization studies, cells were incubated in serum-free medium for 36 hours, followed by replenishment with 20% FBS. One hour prior to each harvest, cells were pulsed with 10 μM bromodeoxyuridine (BrdU). Cells were fixed and stained for BrdU and DNA content with an anti-BrdU FITC-conjugated antibody and 7-aminoactinomycin-D (7-AAD) dye, respectively, according to the instructions in the BD Pharmingen™ FITC BrdU Flow Kit (BD Biosciences, Franklin Lakes, N.J.). All cytometry data were collected on the BD LSR II flow cytometer using the BD FACS Diva™ software (BD Biosciences, Franklin Lakes, N.J.), and the results were analyzed in FlowJo version 7.5.

pCDK1^Y15 = experiment: Western blot, WEE1 substrate phosphorylation; assay type: cell-based, human; conditions: all six cell lines; 2 hours
Source text: as §4

[19] = twice daily (BID) dosing
Source text: as §6

O=C(NOC[C@H](O)CO)c1ccc(F)c(F)c1Nc1ccc(I)cc1F [PD-0325901, reference compound]
dose response curves in control (CT) versus PKMYT1 siRNA transfected cells (NCI-H460 [1]): identical dose response curves
dose response curves in control (CT) versus PKMYT1 siRNA transfected cells (KNS62 [2]): identical dose response curves

C=CCn1c(=O)c2cnc(Nc3ccc(N4CCN(C)CC4)cc3)nc2n1-c1cccc(C(C)(C)O)n1 [WEE1-1, 2-allyl-1-[6-(1-hydroxy-1-methylethyl)pyridin-2-yl]-6-{[4-(4-methylpiperazin-1-yl)phenyl]amino}-1,2-dihydro-3H-pyrazolo[3,4-d]pyrimidin-3-one]
response on an adjusted scale (cell lines that were killed) (522 cancer cell lines; 450 nM, 33 of 305 cell lines, 96-hour proliferation assay, 0.25 or less = cell death): < 0.25
EC50 (522 cancer cell lines; lower end of range, 2% (9/522) of cell lines): ≤ 100 nM
EC50 (522 cancer cell lines; upper end of range, 19% (98/522) of cell lines): ≥ 1000 nM
range of anti-proliferative EC50s (522 cancer cell lines; across cell lines screened): at least 10 fold
degree of DNA double strand breaks (γH2AX) under mitogen stimulation versus cells not restimulated (ES-2 cells [3]): appreciably larger
effect on pCDK1^T14 (pCDK1^T14): did not observe a WEE1-1-dependent effect
H2AX-positive cell population (A2058 cells [4]): 8%
H2AX-positive cell population (LoVo cells [5]): 27%
H2AX-positive cell population (HT-29 cells [6]): 59%
lowest concentration with evidence of increased pCHK1^S345 (pCHK1^S345; ES-2, A2058, A431 and A427): 50 nM
activation of the DDR (pCHK1^S345) (pCHK1^S345; all six cell lines (ES-2, A2058, A431, A427, KNS62, NCI-H460)): dose-dependent activation of the DDR
percentage of pHH3 positive cells (A2058 cells [7]): increased
percentage of pHH3 positive cells (LoVo cells [8]): increased
mitotic (pHH3 positive) population with 4N DNA (HT-29 cells [9]): 43%
mitotic (pHH3 positive) population with <4N DNA (HT-29 cells [9]): 23%
share of DNA damage detected in BrdU-positive cells ([10]; 2 hours): 95%
share of DNA damage detected in BrdU-positive cells ([10]; 6 hours): 92%
cells staining positive for γH2AX ([10]; two hours of treatment, 1% to 2% in untreated growing cells): 23%
EC50 ([11]; read-out: EC50 range): 120 to 450 nM
EC50 ([11]; read-out: mean EC50): 280 nM
EC50 ([12]; read-out: EC50 range): ≥ 170 nM
EC50 ([12]; read-out: mean EC50): 1160 nM
EC50 (A431): 170 nM
EC50 (NCI-H460 [13]): 535 nM
EC50 [14]: 116 nM
EC50 (KNS62 [15]): 487 nM
EC50 (ES-2): 256 nM
Tumor growth inhibition (TGI) (SK-MES-1 NSCLC model): 92%
tumor regression [16]: 13%
TGI (NCI-H2122 NSCLC model): 64%
final volumes of individual treated tumors versus initial volumes (A427 xenograft; all 10 tumors): smaller than their initial volumes
regression, final volume as % of the initial mean tumor volume (A427 xenograft; n=10): approximately 50%
TGI [17]: 88%
change in the S-phase population by 8 hours (ES-2 cells [18]; 500 nM with 20% FBS): no detectable change
peak S-phase population (ES-2 cells [18]; 500 nM with 20% FBS after 36 hours serum withdrawal): about 50%
time of peak S-phase population post-FBS (ES-2 cells [18]; 500 nM with 20% FBS, vehicle peak at 12 to 14 hours): 24 h
effect on pCDK1^Y15 (pCDK1^Y15): dose-dependent reduction
maximal effect of treatment upon PKMYT1 depletion (NCI-H460 [1]): not affected
EC50 (NCI-H460 [1]; PKMYT1 knocked down): 104 nM
EC50 (NCI-H460 [1]; non-targeting control siRNA): 677 nM
maximal effect of treatment upon PKMYT1 depletion (KNS62 [2]): not affected
EC50 (KNS62 [2]; PKMYT1 knocked down): 93 nM
EC50 (KNS62 [2]; non-targeting control siRNA): 487 nM
maximum tolerated dose (MTD) [19]: 60 mg per kg

N.N.O=C([O-])C1(C(=O)[O-])CCC1.[Pt+2] [carboplatin, reference compound]
dose response curves in control (CT) versus PKMYT1 siRNA transfected cells (NCI-H460 [1]): identical dose response curves
dose response curves in control (CT) versus PKMYT1 siRNA transfected cells (KNS62 [2]): identical dose response curves

COc1cccc2c1C(=O)c1c(O)c3c(c(O)c1C2=O)C[C@@](O)(C(=O)CO)C[C@@H]3O[C@H]1C[C@H](N)[C@H](O)[C@H](C)O1 [doxorubicin, reference compound]
dose response curves in control (CT) versus PKMYT1 siRNA transfected cells (NCI-H460 [1]): identical dose response curves
dose response curves in control (CT) versus PKMYT1 siRNA transfected cells (KNS62 [2]): identical dose response curves
